These are literature values, as cited in patent US20080112943A1, “Biosynthetic Polypeptide Fusion Inhibitors” (priority 2005, published 2008).

The target in data set [1] is T1, N-formyl peptide receptor (Homo sapiens, UniProt P21462).
T1 construct: host or cells: human phagocytes (endogenous receptor)
T1 sequence (P21462 1-350): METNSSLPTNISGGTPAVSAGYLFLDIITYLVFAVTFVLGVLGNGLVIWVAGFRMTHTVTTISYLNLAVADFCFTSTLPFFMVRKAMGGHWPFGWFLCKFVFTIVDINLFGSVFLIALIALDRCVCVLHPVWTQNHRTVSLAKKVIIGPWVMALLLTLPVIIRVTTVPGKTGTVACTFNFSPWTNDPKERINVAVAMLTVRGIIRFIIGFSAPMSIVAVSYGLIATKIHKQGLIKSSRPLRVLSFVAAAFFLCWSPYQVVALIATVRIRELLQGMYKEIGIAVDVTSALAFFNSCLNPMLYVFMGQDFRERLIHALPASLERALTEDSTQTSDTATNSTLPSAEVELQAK
The settings on record: human phagocytes.

Data set [2] has as its system monocytes and neutrophils.
For data set [3] the following is noted: in vitro studies and in animals.

As to enfuvirtide, the “activation of the N-formyl peptide receptor” value in data set [1] was “activates”. The “inhibition of HIV-1 mediated CD-4+ cell-cell fusion (i.e., syncytial formation) and infection of CD-4+ cells by cell-free virus” value with HIV-1 is listed as “potent inhibitor”. Moreover, in data set [2], the “chemoattractant and activator of monocytes and neutrophils” value is “chemoattractant and activator”. Further, the toxicity result in data set [3] is “non-toxic”.
